Values after ≈ are worked out from the molar mass of the structure shown. Like-named read-outs stand apart in the source and are kept apart here.
Key:
[1] = Hygroscopicity by DVS at 25° C.; format: physicochemical; settings: for Desorp. (%) / Sorp. (%): DVS 25° C.
Description: Dynamic Vapor Sorption (DVS): DVS analysis was performed using Intrinsic. Analysis was performed using parameters as set forth below.
The hygroscopicity for Form C and Form F was examined. See, e.g., Table E.

[2] = Variable relative humidity XRPD experiments for Form F; format: physicochemical
Description: Protocol 9: Variable relative humidity experiment. Form F was investigated by variable humidity XRPD experiments. […] Form L reverted to Form F in >10% RH. […] See Example 8 for more details.
Form F was investigated by variable humidity XRPD experiments.

physchem = settings: 37 °C, thermodynamic from solid
Description: (§1) 2.01 mg of the free base Form C (equal to 2 mg free base after correction for water content) was weighed into 2 mL vial. 2.09 mg of the free base Form F (equal to 2 mg free base after correction for water content) was weighed into a 2 mL vial. I mL of aqueous media was added, respectively. These suspensions were stirred at 37° C. at a rate of 400 rpm. These suspensions were taken out after 2 h and 24 h, and then centrifuged at 14,000 rpm for 5 minutes. The supernatants were analyzed by HPLC. The pH of the supernatants were tested.

[3] = Bulk stability under accelerated storage conditions (XRPD and HPLC); settings: Solid state
Description: Solids obtained after bulk stability study were characterized by XRPD and HPLC.

[4] = Solubility study in aqueous media at 37° C. (HPLC of supernatants, pH)
Description: as §1

[5] = 25° C./92.5% RH in an open vial, 2 weeks
[6] = 25° C./92.5% RH in an open vial, 4 weeks
[7] = 40° C./75% RH in an open vial, 2 weeks
[8] = 40° C./75% RH in an open vial, 4 week
[9] = 60° C., tight container, 2 weeks
[10] = 60° C., tight container, 4 weeks
[11] = pH 6.8 (50 mM) phosphate buffer, 37° C.

DVS water uptake from 40% RH to 70% RH ([1]; 25° C., dm/dt = 0.002%): 1.1% water uptake from 40% RH to 70% RH
DVS water uptake from 40% RH to 95% RH ([1]; 25° C., dm/dt = 0.002%): 10.2% water uptake from 40% RH to 95% RH
Desorp. (%) ([1]; Relative Humidity 0%, first Desorp.): 0.0%
Sorp. (%) ([1]; Relative Humidity 0%, second Sorp.): 0.0%
Desorp. (%) ([1]; Relative Humidity 10%, first Desorp.): 1.4%
Sorp. (%) ([1]; Relative Humidity 10%, second Sorp.): 1.3%
Desorp. (%) ([1]; Relative Humidity 20%, first Desorp.): 1.9%
Sorp. (%) ([1]; Relative Humidity 20%, second Sorp.): 1.7%
Desorp. (%) ([1]; Relative Humidity 30%, first Desorp.): 3.6%
Sorp. (%) ([1]; Relative Humidity 30%, second Sorp.): 2.1%
Desorp. (%) ([1]; Relative Humidity 40%, first Desorp.): 6.3%
Sorp. (%) ([1]; Relative Humidity 40%, first Sorp.): 2.5%
Desorp. (%) ([1]; Relative Humidity 40%, second Desorp.): 6.4%
Sorp. (%) ([1]; Relative Humidity 40%, second Sorp.): 2.8%
Desorp. (%) ([1]; Relative Humidity 50%, first Desorp.): 8.0%
Sorp. (%) ([1]; Relative Humidity 50%, first Sorp.): 2.8%
Desorp. (%) ([1]; Relative Humidity 50%, second Desorp.): 7.9%
Sorp. (%) ([1]; Relative Humidity 50%, second Sorp.): 3.2%
Desorp. (%) ([1]; Relative Humidity 60%, first Desorp.): 9.4%
Sorp. (%) ([1]; Relative Humidity 60%, first Sorp.): 3.2%
Desorp. (%) ([1]; Relative Humidity 60%, second Desorp.): 9.3%
Sorp. (%) ([1]; Relative Humidity 60%, second Sorp.): 3.7%
Desorp. (%) ([1]; Relative Humidity 70%, first Desorp.): 10.2%
Sorp. (%) ([1]; Relative Humidity 70%, first Sorp.): 3.6%
Desorp. (%) ([1]; Relative Humidity 70%, second Desorp.): 10.0%
Sorp. (%) ([1]; Relative Humidity 70%, second Sorp.): 4.2%
Desorp. (%) ([1]; Relative Humidity 80%, first Desorp.): 11.0%
Sorp. (%) ([1]; Relative Humidity 80%, first Sorp.): 10.4%
Desorp. (%) ([1]; Relative Humidity 80%, second Desorp.): 10.8%
Sorp. (%) ([1]; Relative Humidity 80%, second Sorp.): 10.4%
Desorp. (%) ([1]; Relative Humidity 90%, first Desorp.): 11.8%
Sorp. (%) ([1]; Relative Humidity 90%, first Sorp.): 11.6%
Desorp. (%) ([1]; Relative Humidity 90%, second Desorp.): 11.6%
Sorp. (%) ([1]; Relative Humidity 90%, second Sorp.): 11.4%
Desorp. (%) ([1]; Relative Humidity 95%, first Desorp.): 12.9%
Sorp. (%) ([1]; Relative Humidity 95%, first Sorp.): 12.7%
Desorp. (%) ([1]; Relative Humidity 95%, second Desorp.): 12.2%
Sorp. (%) ([1]; Relative Humidity 95%, second Sorp.): 12.2%
XRPD after DVS test ([1]; DVS at 25° C.): No form change
XRPD (form observed) ([2]; 0% RH (12 h), step 8 of humidity sequence): Form L (Only stable in low humidity)
XRPD (form observed) ([2]; 0% RH (24 h), step 9 of humidity sequence): Form L (Only stable in low humidity)
XRPD (form observed) ([2]; 10% RH, step 7 of humidity sequence): Form F
XRPD (form observed) ([2]; 10% RH, step 10 of humidity sequence): Form F
XRPD (form observed) ([2]; 40% RH, step 1 of humidity sequence): Form F
XRPD (form observed) ([2]; 40% RH, step 6 of humidity sequence): Form F
XRPD (form observed) ([2]; 40% RH, step 11 of humidity sequence): Form F
XRPD (form observed) ([2]; 70% RH, step 2 of humidity sequence): Form F
XRPD (form observed) ([2]; 70% RH, step 5 of humidity sequence): Form F
XRPD (form observed) ([2]; 90% RH (3 h), step 3 of humidity sequence): Form F
XRPD (form observed) ([2]; 90% RH (6 h), step 4 of humidity sequence): Form F
2 h Solubility (pH 5): Degradation
24 h Solubility (pH 5): Degradation
2 h Solubility (pH 6.5): Degradation
24 h Solubility (pH 6.5): Degradation
solubility (physchem; pH 1, simulated gastric fluid): > 2000 µg/mL
solubility at 2 h (physchem; pH 1, simulated gastric fluid): > 2000 µg/mL
solubility at 24 h (physchem; pH 1, simulated gastric fluid): > 2000 µg/mL
solubility (physchem; pH 2, simulated gastric fluid): > 2000 µg/mL
solubility at 2 h (physchem; pH 2, simulated gastric fluid): > 2000 µg/mL
solubility at 24 h (physchem; pH 2, simulated gastric fluid): > 2000 µg/mL
solubility (physchem; pH 4.5, aqueous buffer): > 2000 µg/mL
solubility at 2 h (physchem; pH 4.5, aqueous buffer): > 2000 µg/mL
solubility at 24 h (physchem; pH 4.5, aqueous buffer): > 2000 µg/mL
solubility (physchem; pH 6.8, aqueous buffer): ~20 µg/mL (≈ 35.6 µM)
solubility at 2 h (physchem; pH 6.8, aqueous buffer): 20.7 µg/mL (≈ 36.9 µM)
solubility at 24 h (physchem; pH 6.8, aqueous buffer): 19.8 µg/mL (≈ 35.3 µM)
solubility (physchem; water): < 10 µg/mL
solubility at 2 h (physchem; water): 7 µg/mL (≈ 12.5 µM)
solubility at 24 h (physchem; water): 7.5 µg/mL (≈ 13.4 µM)
Bulk (XRPD) [3, 5]: No form change
Purity, Bulk (HPLC) [3, 5]: 95.5%
Bulk (XRPD) [3, 6]: No form change
Purity, Bulk (HPLC) [3, 6]: 94.1%
Bulk (XRPD) [3, 7]: No form change
Purity, Bulk (HPLC) [3, 7]: 94.3%
Bulk (XRPD) [3, 8]: No form change
Purity, Bulk (HPLC) [3, 8]: 91.6%
Bulk (XRPD) [3, 9]: No form change
Purity, Bulk (HPLC) [3, 9]: 90.1%
Bulk (XRPD) [3, 10]: No form change
Purity, Bulk (HPLC) [3, 10]: 82.6%
24 h (pH) of supernatant ([4]; SGF, pH 2.0, 37° C.): pH 3.5
XRPD of residual solid ([4]; Water, 37° C.): Form F
24 h (pH) of supernatant ([4]; Water, 37° C.): pH 7.0
24 h (pH) of supernatant ([4]; pH 1.0 (0.1N HCl), 37° C.): pH 0.9
24 h (pH) of supernatant ([4]; pH 4.5 (50 mM) acetate buffer, 37° C.): pH 4.6
XRPD of residual solid [4, 11]: Form F
24 h (pH) of supernatant [4, 11]: pH 6.7
SMILES: CN1C[C@H]2C[C@@]2(C#Cc2cc3ncnc(Nc4cccc(Cl)c4F)c3cc2NC(=O)/C=C/CN2CCOCC2)C1 [Form F]
form conversion in variable humidity XRPD ([2]; 0% RH): converted to a new crystalline form, assigned as Form L

Reference: patent publication US20240425492A1, “POLYMORPHS AS ERBB INHIBITORS” (Black Diamond Therapeutics, Inc., priority 2021, published 2024)
